Measured values: US10961222B2, “Chemical compound of isocitrate dehydrogenase inhibitor, and application thereof” (NANJING SANHOME PHARMACEUTICAL CO., LTD., priority 2016, dated 2021)

target: T1, IDH2-R140Q mutant enzyme (Homo sapiens, UniProt P48735, R140Q); experiment: Inhibitory activity of compounds on IDH2-R140Q enzyme in vitro (diaphorase/resazurin fluorescence); assay type: biochemical; settings: IDH2-R140Q, pre-incubated 16 h with enzyme and NADPH, reaction 1 h with α-ketoglutarate; read-out: R140Q IC50
T1 construct: purchased BPS 71100-1
T1 sequence (P48735 40-452 R140Q): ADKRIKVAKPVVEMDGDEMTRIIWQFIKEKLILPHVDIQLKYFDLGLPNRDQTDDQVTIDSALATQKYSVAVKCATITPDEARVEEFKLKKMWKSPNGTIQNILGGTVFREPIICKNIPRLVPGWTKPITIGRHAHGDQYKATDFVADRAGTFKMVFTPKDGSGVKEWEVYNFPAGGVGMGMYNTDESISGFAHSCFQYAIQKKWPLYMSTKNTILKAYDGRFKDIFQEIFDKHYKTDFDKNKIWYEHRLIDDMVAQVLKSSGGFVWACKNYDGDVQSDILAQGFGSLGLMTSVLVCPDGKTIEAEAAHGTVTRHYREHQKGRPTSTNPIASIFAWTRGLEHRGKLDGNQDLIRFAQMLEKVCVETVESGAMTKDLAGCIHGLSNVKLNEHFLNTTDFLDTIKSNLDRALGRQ
Method: Instrument: SpectraMax M3 Multi-Mode Microplate Reader, purchased from Molecular Devices.
In a 96-well plate, 40 μL of reaction buffer containing 2× enzyme (IDH2-WT or IDH2-R140Q) and cofactor (NADP or NADPH) was added to each well of the compound group and the DMSO control group, and 40 μL of reaction buffer containing 2× cofactor (NADP or NADPH) was added to each well of the enzyme-free control group.
20 μL of reaction buffer containing 4× compound to be tested was added to each well of the compound group. The compound was pre-formulated into 200× mother liquor with 100% DMSO; in the final reaction system, the concentration of DMSO was 0.5%. 20 μL of reaction buffer containing DMSO was added to each well of the DMSO control group; in the final reaction system, the concentration of DMSO was 0.5%.
The compound was mixed well with the enzyme and cofactor, and pre-incubated at room temperature for 16 h;
20 μL of reaction buffer containing 4× reaction substrate was added to each well. After mixed uniformly, the mixture was reacted at room temperature for 1 h.
3× termination and detection solution (it was prepared with reaction buffer, the final concentration of Diaphorase was 0.015 mg/mL, and the final concentration of Resazurin was 0.03 mM) was prepared. 40 μL of 3× termination and detection solution was added to each well of the enzyme reaction system. After mixed uniformly, the mixture was incubated at room temperature for 10 min;
Fluorescence values of two wells were obtained and averaged and the activity rate (Activity %) was calculated. The calculation formula: Activity %=(Measured data−Subtract background)/(DMSO Control−Subtract background)×100, wherein “Measured data” is fluorescence value of the compound in the pre-incubated wells, “Subtract background” is the fluorescence value of the enzyme-free control wells, and “DMSO Control” is the fluorescence value in the DMSO pre-incubated wells. Data was processed by GraphPad Prism v5.0 software and fitted to obtain IC50.

| SMILES | IC50 [nM] |
| --- | --- |
| OC1CCCN(c2nc(Nc3ccnc(C(F)(F)F)c3)nc(-c3cccc(C(F)(F)F)n3)n2)C1 (stereo in doubt) [Example 9, 4-((R)-3-hydroxypiperidin-1-yl)-6-(6-(trifluoromethyl)pyridin-2-yl)-N-(2-(trifluoromethyl)pyridin-4-yl)-1,3,5-triazin-2-amine] | 22 |
| FC(F)(F)c1cc(Nc2nc(-c3cccc(C(F)(F)F)n3)nc(N3CCNCC3)n2)ccn1 [Example 5, 4-(Piperazin-1-yl)-6-(6-(trifluoromethyl)pyridin-2-yl)-N-(2-(trifluoromethyl)pyridin-4-yl)-1,3,5-triazin-2-amine] | 25 |
| FC(F)(F)c1cc(Nc2nc(-c3cccc(C(F)(F)F)n3)nc(N3CCCC(C(F)(F)F)C3)n2)ccn1 (stereo not shown) [Example 7, 4-(3-(Trifluoromethyl)piperidin-1-yl)-6-(6-(trifluoromethyl)pyridin-2-yl)-N-(2-(trifluoromethyl)pyridin-4-yl)-1,3,5-triazin-2-amine] | 20 |
| O=S1(=O)CCN(c2nc(Nc3ccnc(C(F)(F)F)c3)nc(-c3cccc(C(F)(F)F)n3)n2)CN1 [Example 8] | 18 |
| O[C@H]1CCCN(c2nc(Nc3ccnc(C(F)(F)F)c3)nc(-c3cccc(C(F)(F)F)n3)n2)C1 [Example 10, 4-((S)-3-hydroxypiperidin-1-yl)-6-(6-(trifluoromethyl)pyridin-2-yl)-N-(2-(trifluoromethyl)pyridin-4-yl)-1,3,5-triazin-2-amine] | 19 |
| FC1CCCN(c2nc(Nc3ccnc(C(F)(F)F)c3)nc(-c3cccc(C(F)(F)F)n3)n2)C1 (stereo not shown) [Example 11, 4-(3-Fluoropiperidin-1-yl)-6-(6-(trifluoromethyl)pyridin-2-yl)-N-(2-(trifluoromethyl)pyridin-4-yl)-1,3,5-triazin-2-amine] | 14 |
| N#CC1CCCN(c2nc(Nc3ccnc(C(F)(F)F)c3)nc(-c3cccc(C(F)(F)F)n3)n2)C1 (stereo not shown) [Example 12, 4-(3-Cyanopiperidin-1-yl)-6-(6-(trifluoromethyl)pyridin-2-yl)-N-(2-(trifluoromethyl)pyridin-4-yl)-1,3,5-triazin-2-amine] | 25 |
| FC(F)(F)c1cc(Nc2nc(-c3cccc(C(F)(F)F)n3)nc(C3CCCCN3)n2)ccn1 (stereo not shown) [Example 13, 4-(Piperidin-2-yl)-6-(6-(trifluoromethyl)pyridin-2-yl)-N-(2-(trifluoromethyl)pyridin-4-yl)-1,3,5-triazin-2-amine] | 15 |
| FC1(F)CCN(c2nc(Nc3ccnc(C(F)(F)F)c3)nc(-c3cccc(C(F)(F)F)n3)n2)C1 [Example 15, 4-(3,3-Difluoropyrrolidin-1-yl)-6-(6-(trifluoromethyl)pyridin-2-yl)-N-(2-(trifluoromethyl)pyridin-4-yl)-1,3,5-triazin-2-amine] | 18 |
| O[C@@H]1CCN(c2nc(Nc3ccnc(C(F)(F)F)c3)nc(-c3cccc(C(F)(F)F)n3)n2)C1 [Example 17, 4-((R)-3-hydroxypyrrolidin-1-yl)-6-(6-(trifluoromethyl)pyridin-2-yl)-N-(2-(trifluoromethyl)pyridin-4-yl)-1,3,5-triazin-2-amine] | 23 |
| O[C@H]1CCN(c2nc(Nc3ccnc(C(F)(F)F)c3)nc(-c3cccc(C(F)(F)F)n3)n2)C1 [Example 18, 4-((S)-3-hydroxypyrrolidin-1-yl)-6-(6-(trifluoromethyl)pyridin-2-yl)-N-(2-(trifluoromethyl)pyridin-4-yl)-1,3,5-triazin-2-amine] | 26 |
| FC1CCN(c2nc(Nc3ccnc(C(F)(F)F)c3)nc(-c3cccc(C(F)(F)F)n3)n2)CC1 [Example 19, 4-(4-Fluoropiperidin-1-yl)-6-(6-(trifluoromethyl)pyridin-2-yl)-N-(2-(trifluoromethyl)pyridin-4-yl)-1,3,5-triazin-2-amine] | 14 |
| OC1(C(F)(F)F)CCN(c2nc(Nc3ccnc(C(F)(F)F)c3)nc(-c3cccc(C(F)(F)F)n3)n2)CC1 [Example 21, 4-(4-Trifluoromethyl-4-hydroxypiperidin-1-yl)-6-(6-(trifluoromethyl)pyridin-2-yl)-N-(2-(trifluoromethyl)pyridin-4-yl)-1,3,5-triazin-2-amine] | 25 |
